Laboratory results: US4464371A, “Five-membered heterocyclic compounds” (Santen Pharmaceutical Co., Ltd., priority 1980, dated 1984)

Experiments:
[1] = tested on: blood pressure of spontaneously hypertensive rats; assay: Hypotensive effect in spontaneously hypertensive rats (oral, indirect tail-cuff method); type: in vivo, Male spontaneously hypertensive rats (Charles River); details: 10 mg/Kg and 30 mg/Kg, suspended in 0.5% tragacanth, male spontaneously hypertensive rats
Method: Male spontaneously hypertensive rats (Charles River) weighing 370-430 g (37-43 weeks of age) were used.
The subject compound, suspended in 0.5% tragacanth, was given orally to the animals. Their blood pressure was measured by indirect tail-cuff method using a programmed electrosphygmomanometer.
In the figure, line 1 and line 2 represent the hypotensive effect by the compound of this invention at doses of 30 mg/Kg and 10 mg/Kg, respectively, line 3 that by the reference compound at a dose of 30 mg/Kg, and line 4 control (no drugs).

Acute toxicity test = type: in vivo, male mice; details: mouse, in vivo; intravenous, administered as aqueous sodium hydroxide solution, male mice
Text: (§1) Acute toxicity of (2R,4R)--3--[S--[4--(dipropylsulfamoyl)--benzoyl]--3--mercaptopropionyl]-- 2--(2--hydroxyphenyl)--4--thiazolidinecarboxylic acid is shown in the table.
(§2) *^1 administered as tragacanth
(§3) *^2 administered as aqueous sodium hydroxide solution
(§4) Animals used in this test were ten male mice in each route.

mice = assay: Acute toxicity test; type: in vivo, male mice
Text: as §1, §2, §3, §4

SMILES: CCCN(CCC)S(=O)(=O)c1ccc(C(=O)SCCC(=O)N2[C@@H](c3ccccc3O)SC[C@H]2C(=O)O)cc1 [Example 1, (2R,4R)--3--[S--[4--(Dipropylsulfamoyl)benzoyl]--3--mercaptopropionyl]--2-- (2--hydroxyphenyl)--4--thiazolidinecarboxilic acid]
- decrease of blood pressure (hypotensive effect) [1]: clearly decreased the blood pressure
- LD50 (Acute toxicity test): > 500 mg/kg
- LD50 (deaths observed) (mice; mouse, in vivo, po, 1000 mg/kg): No death was observed
- acute toxicity (overall) (mice; oral and intravenous, male mice): low toxicity
